Like-named read-outs stand apart in the source and are kept apart here.
Key:
[1] = system: Beet Armyworm (Spodoptera exigua, LAPHEG); assay: Bioassay on Beet Armyworm (BAW), 128-well diet tray assay; assay type: in vivo; settings: for mortality at 50 µg/cm2: 168 h, 50 μg/cm^2 on artificial diet, second instar larvae, five to seven days, 25° C., read-out: BAW % Control (or Mortality) rating
Description: (§1) Example A: Bioassays on Beet Armyworm (Spodoptera Exigua, LAPHEG) (“BAW”), Corn Earworm (Helicoverpa zea, HELIZE) (“CEW”), and Cabbage Looper (Trichoplusia ni, TRIPNI) (“CL”)
(§2) Certain molecules disclosed in this document were tested against BAW, CEW, and CL using procedures described in the following examples. In the reporting of the results, the “BAW, CEW, & CL Rating Table” was used (See Table Section).
Bioassays on BAW were conducted using a 128-well diet tray assay. One to five second instar BAW larvae were placed in each well (3 mL) of the diet tray that had been previously filled with 1 mL of artificial diet to which 50 μg/cm^2 of the test molecule (dissolved in 50 μL of 90:10 acetone-water mixture) had been applied (to each of eight wells) and then allowed to dry. Trays were covered with a clear self-adhesive cover and held at 25° C., 14:10 light-dark for five to seven days. Percent mortality was recorded for the larvae in each well; activity in the eight wells was then averaged. The results are indicated in the table entitled “Table ABC: Biological Results” (See Table Section).
(§3) Bioassays on BAW and CL were conducted according to the procedures outlined in Example A: Bioassays on Beet Armyworm (“BAW”) and Cabbage Looper (“CL”) using the indicated concentrations.

[2] = system: Cabbage Looper (Trichoplusia ni, TRIPNI); assay: Bioassay on Cabbage Looper (CL), 128-well diet tray assay; assay type: in vivo; settings: for mortality at 50 µg/cm2: 168 h, 50 μg/cm^2 on artificial diet, second instar larvae, five to seven days, 25° C., read-out: CL % Control (or Mortality) rating
Description: as §1, §2
Bioassays on CL were conducted using a 128-well diet tray assay. One to five second instar CL larvae were placed in each well (3 mL) of the diet tray that had been previously filled with 1 mL of artificial diet to which 50 μg/cm^2 of the test molecule (dissolved in 50 μL of 90:10 acetone-water mixture) had been applied (to each of eight wells) and then allowed to dry. Trays were covered with a clear self-adhesive cover and held at 25° C., 14:10 light-dark for five to seven days. Percent mortality was recorded for the larvae in each well; activity in the eight wells was then averaged. The results are indicated in the table entitled “Table ABC: Biological Results” (See Table Section).
as §3

[3] = 0.05 μg/cm^2, Table CD2 comparative data, read-out: Percent control (or mortality) BAW
[4] = 0.5 μg/cm^2, Table CD2 comparative data, read-out: Percent control (or mortality) BAW
[5] = 5 μg/cm^2, Table CD2 comparative data, read-out: Percent control (or mortality) BAW
[6] = 0.05 μg/cm^2, Table CD2 comparative data, read-out: Percent control (or mortality) CL
[7] = 0.5 μg/cm^2, Table CD2 comparative data, read-out: Percent control (or mortality) CL
[8] = 5 μg/cm^2, Table CD2 comparative data, read-out: Percent control (or mortality) CL

C[C@H](CSCC(F)(F)F)NC(=O)c1ccc(/C(F)=C/C(c2cc(Cl)c(Cl)c(Cl)c2)C(C)(F)F)cc1 (stereo partly drawn) [FC2, 4-((Z)-1,4,4-Trifluoro-3-(3,4,5-trichlorophenyl)pent-1-en-1-yl)-N—((R)-1-((2,2,2-trifluoroethyl)thio)propan-2-yl)benzamide] gave a mortality at 0.05 µg/cm2 [1, 3] of 0%, a mortality at 0.5 µg/cm2 [1, 4] of 20% and a mortality at 5 µg/cm2 [1, 5] of 100%. It also gave a mortality at 0.05 µg/cm2 [2, 6] of 0%, a mortality at 0.5 µg/cm2 [2, 7] of 0% and a mortality at 5 µg/cm2 [2, 8] of 100%.
C[C@H](CS(=O)(=O)CC(F)(F)F)NC(=O)c1ccc(/C(F)=C/C(c2ccc(Cl)c(Cl)c2)C(F)(F)F)cc1Br (stereo partly shown) [F67] was tested, and the mortality at 50 µg/cm2 [1] was 50 to 100% and the mortality at 50 µg/cm2 [2] was 50 to 100%.
C[C@H](CS(=O)(=O)CC(F)(F)F)NC(=O)c1ccc(/C(F)=C/C(c2cc(F)cc(Cl)c2)C(F)(F)F)cc1C(F)(F)F (stereo partly drawn) [F126, 4-((Z)-3-(3-Chloro-5-fluorophenyl)-1,4,4,4-tetrafluorobut-1-en-1-yl)-N—((R)-1-((2,2,2-trifluoroethyl)sulfonyl)propan-2-yl)-2-(trifluoromethyl)benzamide] was tested, and the mortality at 50 µg/cm2 [1] was 50 to 100% and the mortality at 50 µg/cm2 [2] was 50 to 100%.
C[C@H](C[S+]([O-])CC(C)(F)F)NC(=O)c1ccc(/C(F)=C/C(c2cc(Cl)c(Cl)c(Cl)c2)C(F)(F)F)cc1C(F)(F)F (stereo partly drawn) [F96, N-((2R)-1-((2,2-Difluoropropyl)sulfinyl)propan-2-yl)-4-((Z)-1,4,4,4-tetrafluoro-3-(3,4,5-trichlorophenyl)but-1-en-1-yl)-2-(trifluoromethyl)benzamide] showed a mortality at 50 µg/cm2 [1] of 50 to 100% and a mortality at 50 µg/cm2 [2] of 50 to 100%.
In the case of Cc1cc(C(/C=C(\F)c2ccc(C(=O)N[C@H](C)CS(=O)(=O)CC(F)(F)F)c(C(F)(F)F)c2)C(F)(F)F)ccc1Cl (stereo partly drawn) [PF8, 4-((Z)-3-(4-Chloro-3-methylphenyl)-1,4,4,4-tetrafluorobut-1-en-1-yl)-N—((R)-1-((2,2,2-trifluoroethyl)sulfonyl)propan-2-yl)-2-(trifluoromethyl)benzamide], the mortality at 50 µg/cm2 [1] is reported as 50 to 100% and the mortality at 50 µg/cm2 [2] is reported as 50 to 100%.
In the case of C[C@H](C[S+]([O-])CC(F)(F)F)NC(=O)c1ccc(/C(F)=C/C(c2ccc(Cl)c(Cl)c2)C(F)(F)F)cc1Br (stereo partly drawn) [F66, 2-Bromo-4-((Z)-3-(3,4-dichlorophenyl)-1,4,4,4-tetrafluorobut-1-en-1-yl)-N-((2R)-1-((2,2,2-trifluoroethyl)sulfinyl)propan-2-yl)benzamide], the mortality at 50 µg/cm2 [1] is reported as 50 to 100% and the mortality at 50 µg/cm2 [2] is reported as 50 to 100%.
Compound Cc1cc(/C(F)=C/C(c2cc(Cl)c(Cl)c(Cl)c2)C(F)(F)F)ccc1C(=O)N[C@H](C)CSCC(F)(F)F (stereo partly drawn) [F4, 2-Methyl-4-((Z)-1,4,4,4-tetrafluoro-3-(3,4,5-trichlorophenyl)but-1-en-1-yl)-N—((R)-1-((2,2,2-trifluoroethyl)thio)propan-2-yl)benzamide] has a mortality at 0.05 µg/cm2 [1, 3] of 67%, a mortality at 0.5 µg/cm2 [1, 4] of 100% and a mortality at 5 µg/cm2 [1, 5] of 100%. The mortality at 50 µg/cm2 [1] was 50 to 100%, the mortality at 0.05 µg/cm2 [2, 6] was 7% and the mortality at 0.5 µg/cm2 [2, 7] was 60%. For the same compound, the mortality at 5 µg/cm2 [2, 8] was 100% and the mortality at 50 µg/cm2 [2] was 50 to 100%.
C[C@H](CSCCC#N)NC(=O)c1ccc(/C(F)=C/C(c2cc(Cl)c(Cl)c(Cl)c2)C(F)(F)F)cc1C(F)(F)F (stereo partly drawn) [F128, N—((R)-1-((2-Cyanoethyl)thio)propan-2-yl)-4-((Z)-1,4,4,4-tetrafluoro-3-(3,4,5-trichlorophenyl)but-1-en-1-yl)-2-(trifluoromethyl)benzamide] showed a mortality at 50 µg/cm2 [1] of 50 to 100% and a mortality at 50 µg/cm2 [2] of 50 to 100%.
For C[C@H](CS(=O)(=O)CC(F)F)NC(=O)c1ccc(/C(F)=C/C(c2cc(Cl)c(Cl)c(Cl)c2)C(F)(F)F)cc1C(F)(F)F (stereo partly drawn) [F129, N—((R)-1-((2,2-difluoroethyl)sulfonyl)propan-2-yl)-4-((Z)-1,4,4,4-tetrafluoro-3-(3,4,5-trichlorophenyl)but-1-en-1-yl)-2-(trifluoromethyl)benzamide], the mortality at 50 µg/cm2 [1] was 50 to 100% and the mortality at 50 µg/cm2 [2] was 50 to 100%.
For C[C@H](CS(=O)(=O)CC(F)(F)F)NC(=O)c1ccc(/C(F)=C/C(c2ccc(OC(F)(F)F)c(Cl)c2)C(F)(F)F)cc1C(F)(F)F (stereo partly drawn) [F109, 4-((Z)-3-(3-Chloro-4-(trifluoromethoxy)phenyl)-1,4,4,4-tetrafluorobut-1-en-1-yl)-N—((R)-1-((2,2,2-trifluoroethyl)sulfonyl)propan-2-yl)-2-(trifluoromethyl)benzamide], the mortality at 50 µg/cm2 [1] was 50 to 100% and the mortality at 50 µg/cm2 [2] was 50 to 100%.
With CSC[C@@H](C)NC(=O)c1ccc(/C(F)=C/C(c2cc(Cl)c(Cl)c(Cl)c2)C(F)(F)F)cc1C(F)(F)F (stereo partly drawn) [F75, N—((R)-1-(Methylthio)propan-2-yl)-4-((Z)-1,4,4,4-tetrafluoro-3-(3,4,5-trichlorophenyl)but-1-en-1-yl)-2-(trifluoromethyl)benzamide] the mortality at 50 µg/cm2 [1] was 50 to 100% and the mortality at 50 µg/cm2 [2] was 50 to 100%.
C[C@H](CS(=O)(=O)CC(F)(F)F)NC(=O)c1ccc(/C(F)=C/C(c2ccc(Cl)c(F)c2)C(F)(F)F)cc1C(F)(F)F (stereo partly drawn) [PF4, 4-((Z)-3-(4-Chloro-3-fluorophenyl)-1,4,4,4-tetrafluorobut-1-en-1-yl)-N—((R)-1-((2,2,2-trifluoroethyl)sulfonyl)propan-2-yl)-2-(trifluoromethyl)benzamide] showed a mortality at 50 µg/cm2 [1] of 50 to 100% and a mortality at 50 µg/cm2 [2] of 50 to 100%.
For Cc1cc(/C(F)=C/C(c2cc(Cl)c(Cl)c(Cl)c2)C(C)(F)F)ccc1C(=O)N[C@H](C)CS(=O)(=O)CC(F)(F)F (stereo partly drawn) [F14, 2-Methyl-4-((Z)-1,4,4-trifluoro-3-(3,4,5-trichlorophenyl)pent-1-en-1-yl)-N—((R)-1-((2,2,2-trifluoroethyl)sulfonyl)propan-2-yl)benzamide], the mortality at 0.05 µg/cm2 ([1]; 0.05 μg/cm^2, read-out: BAW Percent control (or mortality)) was 69%, the mortality at 0.5 µg/cm2 ([1]; 0.5 μg/cm^2, read-out: BAW Percent control (or mortality)) was 100% and the mortality at 5 µg/cm2 ([1]; 5 μg/cm^2, read-out: BAW Percent control (or mortality)) was 100%. For the same compound, the mortality at 50 µg/cm2 [1] was 50 to 100%, the mortality at 0.05 µg/cm2 ([2]; 0.05 μg/cm^2, read-out: CL Percent control (or mortality)) was 100% and the mortality at 0.5 µg/cm2 ([2]; 0.5 μg/cm^2, read-out: CL Percent control (or mortality)) was 100%. The mortality at 5 µg/cm2 ([2]; 5 μg/cm^2, read-out: CL Percent control (or mortality)) was 100% and the mortality at 50 µg/cm2 [2] was 50 to 100%.
For Cc1cc(/C(F)=C/C(c2cc(Cl)c(Cl)c(Cl)c2)C(C)(F)F)ccc1C(=O)N[C@H](C)CSCC(F)(F)F (stereo partly drawn) [F13, 2-Methyl-4-((Z)-1,4,4-trifluoro-3-(3,4,5-trichlorophenyl)pent-1-en-1-yl)-N—((R)-1-((2,2,2-trifluoroethyl)thio)propan-2-yl)benzamide], the mortality at 50 µg/cm2 [1] was 50 to 100% and the mortality at 50 µg/cm2 [2] was 50 to 100%.
C[C@H](C[S+]([O-])CC(F)F)NC(=O)c1ccc(/C(F)=C/C(c2cc(Cl)c(Cl)c(Cl)c2)C(F)(F)F)cc1C(F)(F)F (stereo partly drawn) [F86, N-((2R)-1-((2,2-Difluoroethyl)sulfinyl)propan-2-yl)-4-((Z)-1,4,4,4-tetrafluoro-3-(3,4,5-trichlorophenyl)but-1-en-1-yl)-2-(trifluoromethyl)benzamide] was tested, and the mortality at 50 µg/cm2 [1] was 50 to 100% and the mortality at 50 µg/cm2 [2] was 50 to 100%.
In the case of CCSC[C@@H](C)NC(=O)c1ccc(/C(F)=C/C(c2cc(Cl)c(F)c(Cl)c2)C(F)(F)F)cc1C(F)(F)F (stereo partly drawn) [F41, 4-((Z)-3-(3,5-Dichloro-4-fluorophenyl)-1,4,4,4-tetrafluorobut-1-en-1-yl)-N—((R)-1-(ethylthio)propan-2-yl)-2-(trifluoromethyl)benzamide], the mortality at 50 µg/cm2 [1] is reported as 50 to 100% and the mortality at 50 µg/cm2 [2] is reported as 50 to 100%.
C[C@H](CS(=O)(=O)CC(F)(F)F)NC(=O)c1ccc(/C(F)=C/C(c2cc(Cl)c(Cl)c(C(F)F)c2)C(F)(F)F)cc1C(F)(F)F (stereo partly drawn) [F70, 4-((Z)-3-(3,4-dichloro-5-(difluoromethyl)phenyl)-1,4,4,4-tetrafluorobut-1-en-1-yl)-N—((R)-1-((2,2,2-trifluoroethyl)sulfonyl)propan-2-yl)-2-(trifluoromethyl)benzamide] gave a mortality at 50 µg/cm2 [1] of 50 to 100% and a mortality at 50 µg/cm2 [2] of 50 to 100%.
In the case of CCC(F)(F)C(/C=C(\F)c1ccc(C(=O)N[C@H](C)CS(=O)(=O)CC(F)(F)F)c(C(F)(F)F)c1)c1cc(Cl)c(Cl)c(Cl)c1 (stereo partly drawn) [F38, 4-((Z)-1,4,4-Trifluoro-3-(3,4,5-trichlorophenyl)hex-1-en-1-yl)-N—((R)-1-((2,2,2-trifluoroethyl)sulfonyl)propan-2-yl)-2-(trifluoromethyl)benzamide], the mortality at 50 µg/cm2 [1] is reported as 50 to 100% and the mortality at 50 µg/cm2 [2] is reported as 50 to 100%.

From US10681908B2, “Molecules having pesticidal utility, and intermediates, compositions, and processes, related thereto” (Dow AgroSciences LLC, priority 2016, dated 2020)
